Reference: PubChem BioAssay (NCI)
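Assay format: 96-well plates, 48-hour exposure. TGI denotes the concentration required for complete inhibition of growth.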

Legend:
Experiment in all cases: NCI-60 cell line screen, 48 h
OVCAR-8 ovarian = tested on: OVCAR-8 ovarian
NCI-H522 lung = tested on: NCI-H522 lung
SK-MEL-2 melanoma = tested on: SK-MEL-2 melanoma
A549 NSCLC = tested on: A549 NSCLC
SNB-75 CNS = tested on: SNB-75 CNS
SNB-19 CNS = tested on: SNB-19 CNS
ACHN renal = tested on: ACHN renal
SK-OV-3 ovarian = tested on: SK-OV-3 ovarian
SK-MEL-5 melanoma = tested on: SK-MEL-5 melanoma
UACC-257 melanoma = tested on: UACC-257 melanoma
MDA-MB-435 = tested on: MDA-MB-435
COLO 205 colon = tested on: COLO 205 colon
UACC-62 melanoma = tested on: UACC-62 melanoma
HT29 colon = tested on: HT29 colon
SN12C renal = tested on: SN12C renal
EKVX NSCLC = tested on: EKVX NSCLC
SF-268 CNS = tested on: SF-268 CNS
OVCAR-5 ovarian = tested on: OVCAR-5 ovarian
HL-60(TB) leukemia = tested on: HL-60(TB) leukemia
OVCAR-4 ovarian = tested on: OVCAR-4 ovarian
LOX IMVI melanoma = tested on: LOX IMVI melanoma
HCT-116 colon = tested on: HCT-116 colon
BT-549 breast = tested on: BT-549 breast
RXF 393 renal = tested on: RXF 393 renal
HS 578T breast = tested on: HS 578T breast
HCT-15 colon = tested on: HCT-15 colon
RPMI-8226 leukemia = tested on: RPMI-8226 leukemia
786-0 renal = tested on: 786-0 renal
CAKI-1 renal = tested on: CAKI-1 renal
DU-145 prostate = tested on: DU-145 prostate
MDA-MB-231 breast = tested on: MDA-MB-231 breast
NCI-H226 lung = tested on: NCI-H226 lung
MCF7 breast = tested on: MCF7 breast
U251 CNS = tested on: U251 CNS
T-47D breast = tested on: T-47D breast
M14 melanoma = tested on: M14 melanoma
NCI/ADR-RES ovarian = tested on: NCI/ADR-RES ovarian
K-562 leukemia = tested on: K-562 leukemia
KM12 colon = tested on: KM12 colon
PC-3 prostate = tested on: PC-3 prostate
CCRF-CEM leukemia = tested on: CCRF-CEM leukemia
SR leukemia = tested on: SR leukemia
UO-31 renal = tested on: UO-31 renal
NCI-H23 lung = tested on: NCI-H23 lung
SF-295 CNS = tested on: SF-295 CNS
SF-539 CNS = tested on: SF-539 CNS
IGROV1 ovarian = tested on: IGROV1 ovarian
TK-10 renal = tested on: TK-10 renal
NCI-H460 lung = tested on: NCI-H460 lung
SW-620 colon = tested on: SW-620 colon
HCC-2998 colon = tested on: HCC-2998 colon
HOP-92 NSCLC = tested on: HOP-92 NSCLC
HOP-62 NSCLC = tested on: HOP-62 NSCLC
OVCAR-3 ovarian = tested on: OVCAR-3 ovarian
MOLT-4 leukemia = tested on: MOLT-4 leukemia
MDA-N = tested on: MDA-N
SK-MEL-28 melanoma = tested on: SK-MEL-28 melanoma

Measured: TGI

Cc1ccc(O)c(C(=O)/C=C/c2ccccc2)c1
> 100 µM: all assays above
